Tests used:
[1] = system: Human large intestine cancer cell strain KM20C; test: Anti-tumor test using nude mouse subcutaneous implantation system with peroral administration of CNDAC compound; format: in vivo, BALB/cA Jcl-nu mice; conditions: Mus musculus, sc, 696 h; peroral once a day for 14 days, dose equivalent by mole to 18 mg/kg/day of CNDAC; day 29 after grouping; KM20C subcutaneous implant; read-out: IR (%) tumor growth inhibition rate
Experimental: (§1) Human large intestine cancer cell strain KM20C was subcutaneously subcultured in BALB/cA Jcl-nu mice (CLEA Japan, Inc.), and the resultant cancer tissues were cut into 2 mm dice fragments. Each of the fragments was subcutaneously implanted to a 6-week-old BALB/cA Jcl-nu mouse at the back thereof. On day 14 after the implantation, large and small diameters of the resultant tumor were measured, and the volume of the tumor was calculated by the following equation. The mice were grouped (6 animals per group) so that the groups were roughly equal in terms of average tumor volume. Vt=½(Vl)×(Vs)^2 (Equation 1) In the equation, Vt represents tumor volume, Vl represents large diameter of tumor, and Vs represents small diameter of tumor.
Each CNDAC compound was dissolved or suspended in 0.5% hydroxypropyl methyl cellulose solution which had been buffered with 100 mM citrate buffer (pH 6.0). From the next day after grouping, the mixture was perorally administered to each mouse once a day for consecutive 14 days in a dose which is equivalent, by mole, to 18 mg/kg/day of CNDAC.
On day 29 after the grouping, large and small diameters of the subcutaneously implanted tumor of each mouse were measured, and relative tumor volume (RTV) and inhibition rate (IR) were calculated by the following equations to evaluate anti-tumor effect of the compound. RTV=Vt1/Vt2 (Equation 2) In the equation, RTV represents ratio of tumor volume, Vt1 represents tumor volume measured on the day of determination, and […]. IR(%)=[1−(RTVtest)/(RTVcont)]×100 (Equation 3) In the equation, IR represents tumor growth inhibition rate, RTVtest represents mean RTV value of a drug-administered group, and RTVcont represents mean RTV value of a non-treatment group.

[2] = system: Human large intestine cancer cell strain KM20C; test: Anti-tumor test using nude mouse subcutaneous implantation system, peroral administration in an equitoxic dose; format: in vivo, BALB/cA Jcl-nu mice; conditions: peroral once a day for 14 days, FIG. 1
Experimental: as §1, with “15” for “14”, “through use of” for “by”, “the” for “the groups were roughly equal in terms of”, “volume was common to each group.” for “volume.”, “5)” for “1)”
CNDAC, P-CNDAC, or Compound 19 was dissolved or suspended in 0.5% hydroxypropyl methyl cellulose solution which had been buffered with 100 mM citrate buffer (pH 5.0). From the next day of grouping, the mixture was perorally administered to each mouse once a day for consecutive 14 days in an equitoxic dose.
Large and small diameters of the subcutaneously implanted tumor of each mouse were measured twice a week, and relative tumor volume (RTV) was calculated as an index indicating tumor growth through use of the following equations to evaluate anti-tumor effect of the compound. RTV=Vt1/Vt2 (Equation 6) In the equation, RTV represents ratio of tumor volume, Vt1 represents tumor volume measured on the day of determination, and Vt2 represents tumor volume measured on the day of grouping.

In the case of `CC(C)C(C)(C)[Si](C)(C)O[C@H]1[C@H](C#N)[C@H](n2ccc(N)nc2=O)O[C@@H]1CO` [Example 19, 3′-O-Dimethylthexylsilyl-2′-cyano-2′-deoxy-1-β-D-arabinofuranosylcytosine], the inhibition in vivo [1] is reported as 89%, the melting point is reported as 159 to 161 °C and the deletion of tumor ([2]; 6 animals per group) is reported as “deletes tumor in three cases in total six cases”. For the same compound, the “change in tumor volume (RTV)” value [2] was “greatly reduces the tumor volume as compared with CNDAC and P-CNDAC”.

— patent publication US7825103B2, “Pyrimidine nucleoside compound or its salt” (Taiho Pharmaceutical Co., Ltd., priority 2005, dated 2010)
